Assay results published in US11964967B2, “Cardiac sarcomere inhibitors” (Cytokinetics, Inc., priority 2018, dated 2024).

Target: T1, bovine cardiac myofibrils (Bos taurus, UniProt Q9BE39)
T1 construct: full-length cardiac myosin in the context of the native sarcomere; from tissue; host or cells: bovine cardiac left ventricular tissue, homogenized with detergent (triton X-100)
Assay: Skinned bovine cardiac myofibril ATPase assay (PK/LDH-coupled)
Assay type: biochemical
Details: inhibition of steady-state ATPase activity of bovine cardiac myofibrils, calcium at 75% activation (pCa75), PM12 buffer pH 6.8; for IC50: read-out: CDMF75 IC50
Procedure: To evaluate the effect of compounds on the ATPase activity of full-length cardiac myosin in the context of the native sarcomere, skinned myofibril assays were performed. Bovine cardiac myofibrils were obtained by homogenizing bovine cardiac left ventricular tissue in the presence of a detergent such as triton X-100. Such treatment removes membranes and a majority of the soluble cytoplasmic proteins but leaves intact the cardiac sarcomeric acto-myosin apparatus. Myofibril preparations retain the ability to hydrolyze ATP in an Ca^2+ regulated manner ATPase activities of such myofibril preparations in the presence and absence of compounds were assayed at Ca^2+ concentrations activating to a defined fraction of the maximal rate (i.e., 25%, 75%). Small molecule agents were assessed for their ability to inhibit the steady-state ATPase activity of bovine cardiac myofibrils using pyruvate kinase and lactate dehydrogenase (PK/LDH)-coupled enzyme system. This assay regenerates myosin-produced ADP into ATP by oxidizing NADH, producing an absorbance change at 340 nm. Prior to testing small molecule agents, the bovine cardiac myofibrils were assessed for their calcium responsiveness and the calcium concentration that achieves either a 50% (pCa50) or 75% (pCa75) activation of the myofibril system was chosen as the final condition for assessing the inhibitory activity of the small molecule agents. All enzymatic activity was measured in a buffered solution containing 12 mM PIPES (piperazine-N,N′-bis(2-ethanesulfonic acid), 2 mM magnesium chloride at pH 6.8 (PM 12 buffer). Final assay conditions were 1 mg/mL of bovine cardiac myofibrils, 4 U/mL pyruvate kinase, 6 U/mL lactate dehydrogenase, 50 μM ATP, 0.1 mg/mL BSA (bovine serum albumin), 10 ppm antifoam, 1 mM DTT, 0.5 mM NADH, 1.5 mM PEP, 0.6 mM EGTA, and an amount of CaCl2) sufficient to achieve either 50% or 75% activation of the myofibril ATPase activity. Results for compounds tested are provided in Table A. Compounds tested were prepared in accordance with the synthetic procedures described herein.

T1 sequence (Q9BE39 whole entry): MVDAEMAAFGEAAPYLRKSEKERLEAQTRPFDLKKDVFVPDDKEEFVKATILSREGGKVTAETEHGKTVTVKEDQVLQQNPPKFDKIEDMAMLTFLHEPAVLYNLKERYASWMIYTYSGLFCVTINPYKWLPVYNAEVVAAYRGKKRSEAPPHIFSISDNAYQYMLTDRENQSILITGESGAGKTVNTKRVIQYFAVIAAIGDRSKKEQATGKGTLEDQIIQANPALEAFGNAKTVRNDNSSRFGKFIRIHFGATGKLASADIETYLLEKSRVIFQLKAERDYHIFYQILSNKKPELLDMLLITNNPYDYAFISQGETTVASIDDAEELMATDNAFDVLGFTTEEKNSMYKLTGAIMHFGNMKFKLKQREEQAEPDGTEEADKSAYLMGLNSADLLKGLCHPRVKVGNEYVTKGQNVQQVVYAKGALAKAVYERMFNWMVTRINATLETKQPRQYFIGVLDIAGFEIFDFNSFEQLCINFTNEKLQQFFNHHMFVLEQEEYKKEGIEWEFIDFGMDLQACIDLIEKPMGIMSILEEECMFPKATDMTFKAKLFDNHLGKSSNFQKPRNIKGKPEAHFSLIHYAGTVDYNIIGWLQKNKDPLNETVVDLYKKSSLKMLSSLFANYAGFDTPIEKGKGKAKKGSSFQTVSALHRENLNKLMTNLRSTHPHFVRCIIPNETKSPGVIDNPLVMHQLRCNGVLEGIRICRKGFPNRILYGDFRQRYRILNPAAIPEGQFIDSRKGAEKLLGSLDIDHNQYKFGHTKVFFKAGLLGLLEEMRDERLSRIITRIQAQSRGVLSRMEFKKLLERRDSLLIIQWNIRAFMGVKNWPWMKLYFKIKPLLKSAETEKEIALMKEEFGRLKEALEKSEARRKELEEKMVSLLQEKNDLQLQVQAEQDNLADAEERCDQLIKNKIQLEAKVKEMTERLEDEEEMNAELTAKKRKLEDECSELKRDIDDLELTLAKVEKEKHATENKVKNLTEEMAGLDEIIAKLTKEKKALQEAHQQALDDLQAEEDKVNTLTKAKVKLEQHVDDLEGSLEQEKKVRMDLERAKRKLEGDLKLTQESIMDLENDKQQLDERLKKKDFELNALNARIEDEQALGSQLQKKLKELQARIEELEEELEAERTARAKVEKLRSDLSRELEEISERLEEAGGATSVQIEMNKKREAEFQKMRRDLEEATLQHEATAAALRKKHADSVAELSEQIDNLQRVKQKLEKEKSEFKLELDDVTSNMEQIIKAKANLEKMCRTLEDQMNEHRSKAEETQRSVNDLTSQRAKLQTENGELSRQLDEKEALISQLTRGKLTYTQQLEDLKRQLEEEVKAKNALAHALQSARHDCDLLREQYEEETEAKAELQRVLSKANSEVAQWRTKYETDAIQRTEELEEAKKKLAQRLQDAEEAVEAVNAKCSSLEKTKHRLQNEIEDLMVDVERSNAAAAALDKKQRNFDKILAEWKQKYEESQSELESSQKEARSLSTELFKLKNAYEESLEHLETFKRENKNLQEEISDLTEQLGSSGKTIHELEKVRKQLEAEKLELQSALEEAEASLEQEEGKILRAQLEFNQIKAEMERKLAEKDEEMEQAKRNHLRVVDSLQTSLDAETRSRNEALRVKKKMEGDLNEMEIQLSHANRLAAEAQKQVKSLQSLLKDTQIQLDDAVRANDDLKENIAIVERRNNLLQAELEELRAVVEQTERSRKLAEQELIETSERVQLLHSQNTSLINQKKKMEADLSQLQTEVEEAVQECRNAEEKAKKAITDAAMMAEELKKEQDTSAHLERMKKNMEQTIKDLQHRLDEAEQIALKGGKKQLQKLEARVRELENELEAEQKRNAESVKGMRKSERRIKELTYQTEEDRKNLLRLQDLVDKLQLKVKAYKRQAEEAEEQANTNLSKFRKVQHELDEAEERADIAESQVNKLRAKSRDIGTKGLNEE
T1 sequence (P85100 whole entry partner): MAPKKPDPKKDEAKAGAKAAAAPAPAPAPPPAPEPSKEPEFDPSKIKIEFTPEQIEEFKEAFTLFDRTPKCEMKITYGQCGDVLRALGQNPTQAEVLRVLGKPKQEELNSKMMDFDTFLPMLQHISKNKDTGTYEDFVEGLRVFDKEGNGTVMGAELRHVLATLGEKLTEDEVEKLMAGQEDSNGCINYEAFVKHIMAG
T1 sequence (Q3SZE5 whole entry partner): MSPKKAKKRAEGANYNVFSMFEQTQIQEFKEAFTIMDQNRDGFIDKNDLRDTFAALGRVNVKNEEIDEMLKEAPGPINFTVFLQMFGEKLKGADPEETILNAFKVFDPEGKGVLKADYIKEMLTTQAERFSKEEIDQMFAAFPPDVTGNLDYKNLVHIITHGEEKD

| Compound | CDMF75 IC15 [µM] | IC50 [µM] |
| --- | --- | --- |
| CCc1nc(-c2ccc3c(c2)CCC3C(=O)Nc2ccccc2)no1 (single isomer, unassigned) [Compound 8B] | >39.2 | > 39.2 |
| Cc1cc(NC(=O)C2CCc3cc(-c4noc(C)n4)ccc32)ccn1 (single isomer, unassigned) [Compound 17B] | >39.2 | > 39.2 |
| CCc1nc(-c2ccc3c(c2)CCC3C(=O)Nc2ccnn2C)no1 (single isomer, unassigned) [Compound 5B] | – | > 39.2 |
| Cc1cc(NC(=O)C2CCc3cc(-c4noc(C5CC5)n4)ccc32)ccn1 (racemic) [Compound 20, 5-(5-cyclopropyl-1,2,4-oxadiazol-3-yl)-N-(2-methylpyridin-4-yl)-2,3-dihydro-1H-indene-1-carboxamide] | 2.6 | 13.9 |
| CCc1nc(-c2ccc3c(c2)CCC3C(=O)Nc2ccccc2)no1 (single isomer, unassigned) [Compound 8A] | 0.7 | 2.8 |
| CCc1nc(-c2ccc3c(c2)CCC32COC(=O)N2)no1 (racemic) [Compound 26, 5-(5-ethyl-1,2,4-oxadiazol-3-yl)-2,3-dihydrospiro[indene-1,4′-oxazolidin]-2′-one] | 0.8 | 3 |
| O=C1NC2(CCc3cc(-c4noc(C(F)F)n4)ccc32)CO1 (racemic) [Compound 38, 5-(5-(difluoromethyl)-1,2,4-oxadiazol-3-yl)-2,3-dihydrospiro[indene-1,4′-oxazolidin]-2′-one] | 2.5 | 14.1 |
| Cc1cc(NC(=O)C2CCc3cc(-c4noc(C(F)F)n4)ccc32)ccn1 (racemic) [Compound 14, 5-(5-(difluoromethyl)-1,2,4-oxadiazol-3-yl)-N-(2-methylpyridin-4-yl)-2,3-dihydro-1H-indene-1-carboxamide] | 4.4 | 23.1 |
| Cc1cc(NC(=O)C2CCc3cc(-c4noc(C)n4)ccc32)ccn1 (racemic) [Compound 17, 5-(5-methyl-1,2,4-oxadiazol-3-yl)-N-(2-methylpyridin-4-yl)-2,3-dihydro-1H-indene-1-carboxamide] | 6.0 | 33.4 |
| CC(C)c1nc(-c2ccc3c(c2)CCC32COC(=O)N2)no1 (racemic) [Compound 32, 5-(5-isopropyl-1,2,4-oxadiazol-3-yl)-2,3-dihydrospiro[indene-1,4′-oxazolidin]-2′-one] | 2.7 | 11.4 |
| Cc1cc(NC(=O)C2CCc3cc(-c4noc(C(F)F)n4)ccc32)ccn1 (single isomer, unassigned) [Compound 14B] | >39.2 | > 39.2 |
| CCc1nc(-c2ccc3c(c2)CCC3C(=O)Nc2ccnn2C)no1 (racemic) [Compound 5, 5-(5-ethyl-1,2,4-oxadiazol-3-yl)-N-(1-methyl-1H-pyrazol-5-yl)-2,3-dihydro-1H-indene-1-carboxamide] | >39.2 | > 39.2 |
| CCc1nc(-c2ccc3c(c2)CCC3C(=O)Nc2ccnc(C)c2)no1 (racemic) [Compound 2, 5-(5-ethyl-1,2,4-oxadiazol-3-yl)-N-(2-methylpyridin-4-yl)-2,3-dihydro-1H-indene-1-carboxamide] | 1.6 | 5.5 |
| Cc1cc(NC(=O)C2CCc3cc(-c4noc(C5CC5)n4)ccc32)ccn1 (single isomer, unassigned) [Compound 20A] | 1.2 | 5.6 |
| CCc1nc(-c2ccc3c(c2)CCC3C(=O)Nc2ccnn2C)no1 (single isomer, unassigned) [Compound 5A] | >39.2 | > 39.2 |
| Cc1cc(NC(=O)C2CCc3cc(-c4noc(C(F)F)n4)ccc32)ccn1 (single isomer, unassigned) [Compound 14A] | 2.2 | 11 |
| CCNC(=O)C1CCc2cc(-c3noc(CC)n3)ccc21 (single isomer, unassigned) [Compound 11A] | >39.2 | > 39.2 |
| Cc1cc(NC(=O)C2CCc3cc(-c4noc(C(C)C)n4)ccc32)ccn1 (racemic) [Compound 23, 5-(5-isopropyl-1,2,4-oxadiazol-3-yl)-N-(2-methylpyridin-4-yl)-2,3-dihydro-1H-indene-1-carboxamide] | 5.6 | 29 |
| O=C1NC2(CCc3cc(-c4noc(C5CC5)n4)ccc32)CO1 (racemic) [Compound 35, 5-(5-cyclopropyl-1,2,4-oxadiazol-3-yl)-2,3-dihydrospiro[indene-1,4′-oxazolidin]-2′-one] | 1.5 | 5.8 |
| CCc1nc(-c2ccc3c(c2)CCC3C(=O)Nc2ccccc2)no1 (racemic) [Compound 8, 5-(5-ethyl-1,2,4-oxadiazol-3-yl)-N-phenyl-2,3-dihydro-1H-indene-1-carboxamide] | 1.3 | 6.1 |
| Cc1nc(-c2ccc3c(c2)CCC32COC(=O)N2)no1 (racemic) [Compound 29, 5-(5-methyl-1,2,4-oxadiazol-3-yl)-2,3-dihydrospiro[indene-1,4′-oxazolidin]-2′-one] | 4.2 | 18.4 |
| CCNC(=O)C1CCc2cc(-c3noc(CC)n3)ccc21 (racemic) [Compound 11, N-ethyl-5-(5-ethyl-1,2,4-oxadiazol-3-yl)-2,3-dihydro-1H-indene-1-carboxamide] | >39.2 | > 39.2 |
| Cc1cc(NC(=O)C2CCc3cc(-c4noc(C5CC5)n4)ccc32)ccn1 (single isomer, unassigned) [Compound 20B] | 33.2 | > 39.2 |
| CCc1nc(-c2ccc3c(c2)CCC3C(=O)Nc2ccnc(C)c2)no1 (single isomer, unassigned) [Compound 2A] | 0.7 | 3 |
| CCNC(=O)C1CCc2cc(-c3noc(CC)n3)ccc21 (single isomer, unassigned) [Compound 11B] | 26.3 | > 39.2 |

More lines, now with the values ahead:

| CDMF75 IC15 [µM] | IC50 [µM] | Compound |
| --- | --- | --- |
| >39.2 | > 39.2 | O=C1NC2(CCc3cc(-c4noc(C5CC5)n4)ccc32)CO1 (single isomer, unassigned) [Compound 35A] |
| >39.2 | > 39.2 | Cc1cc(NC(=O)C2CCc3cc(-c4noc(C(C)C)n4)ccc32)ccn1 (single isomer, unassigned) [Compound 23B] |
| 0.2 | 1 | CCc1nc(-c2ccc3c(c2)OCC32COC(=O)N2)no1 (single isomer, unassigned) [Compound 41A] |
| >39.2 | > 39.2 | O=C1NC2(CCc3cc(-c4noc(C(F)F)n4)ccc32)CO1 (single isomer, unassigned) [Compound 38B] |
| 31.0 | > 39.2 | CCc1nc(-c2ccc3c(c2)CCC32COC(=O)N2)no1 (single isomer, unassigned) [Compound 26A] |
| >39.2 | > 39.2 | Cc1nc(-c2ccc3c(c2)CCC32COC(=O)N2)no1 (single isomer, unassigned) [Compound 29A] |
| 1.5 | 6.3 | CC(C)c1nc(-c2ccc3c(c2)CCC32COC(=O)N2)no1 (single isomer, unassigned) [Compound 32A] |
| >39.2 | > 39.2 | CCc1nc(-c2ccc3c(c2)OCC32COC(=O)N2)no1 (single isomer, unassigned) [Compound 41B] |
| 0.3 | 1.6 | CCc1nc(-c2ccc3c(c2)CCC32COC(=O)N2)no1 (single isomer, unassigned) [Compound 26B] |
| 1.8 | 7.5 | O=C1NC2(CCc3cc(-c4noc(C(F)F)n4)ccc32)CO1 (single isomer, unassigned) [Compound 38A] |
| 3.6 | 14.6 | Cc1cc(NC(=O)C2CCc3cc(-c4noc(C(C)C)n4)ccc32)ccn1 (single isomer, unassigned) [Compound 23A] |
| 2.1 | 9.1 | Cc1nc(-c2ccc3c(c2)CCC32COC(=O)N2)no1 (single isomer, unassigned) [Compound 29B] |
| >39.2 | > 39.2 | CC(C)c1nc(-c2ccc3c(c2)CCC32COC(=O)N2)no1 (single isomer, unassigned) [Compound 32B] |
| 0.6 | 3.4 | O=C1NC2(CCc3cc(-c4noc(C5CC5)n4)ccc32)CO1 (single isomer, unassigned) [Compound 35B] |
